Numbers after ± are expanded uncertainties.
Test: refractive index (Na D-line) (dimensionless); xn = mol fraction of the nth substance listed
Details: Liquid, Standard Abbe refractometry

Cc1cc(C)cc(C)c1 [1,3,5-trimethylbenzene] + C1COCCO1
refractive index
Details	288.15 K	293.15 K	298.15 K	303.15 K	308.15 K	313.15 K	318.15 K
x2 = 0	1.502 ± 0.0007	1.4995 ± 0.0007	1.4969 ± 0.0007	1.4944 ± 0.0007	1.4918 ± 0.0007	1.4893 ± 0.0007	1.4868 ± 0.0007
x2 = 0.0696	1.4969 ± 0.0007	1.4942 ± 0.0007	1.4915 ± 0.0007	1.4888 ± 0.0007	1.4861 ± 0.0007	1.4834 ± 0.0007	1.4807 ± 0.0006
x2 = 0.1408	1.4916 ± 0.0007	1.4889 ± 0.0007	1.4862 ± 0.0007	1.4835 ± 0.0007	1.4807 ± 0.0007	1.4779 ± 0.0007	1.4751 ± 0.0007
x2 = 0.2098	1.4865 ± 0.0007	1.4838 ± 0.0007	1.4811 ± 0.0007	1.4784 ± 0.0007	1.4756 ± 0.0007	1.4729 ± 0.0007	1.4701 ± 0.0007
x2 = 0.28	1.4812 ± 0.0007	1.4786 ± 0.0007	1.4758 ± 0.0007	1.4731 ± 0.0007	1.4703 ± 0.0007	1.4676 ± 0.0007	1.4648 ± 0.0007
x2 = 0.3558	1.4755 ± 0.0007	1.4729 ± 0.0007	1.4702 ± 0.0007	1.4675 ± 0.0007	1.4648 ± 0.0007	1.4621 ± 0.0007	1.4593 ± 0.0007
x2 = 0.4276	1.4701 ± 0.0007	1.4675 ± 0.0007	1.4648 ± 0.0007	1.4622 ± 0.0007	1.4595 ± 0.0007	1.4568 ± 0.0007	1.4542 ± 0.0007
x2 = 0.5066	1.4641 ± 0.0007	1.4615 ± 0.0007	1.4589 ± 0.0007	1.4563 ± 0.0007	1.4537 ± 0.0007	1.451 ± 0.0007	1.4484 ± 0.0007
x2 = 0.5801	1.4584 ± 0.0007	1.4558 ± 0.0007	1.4532 ± 0.0007	1.4506 ± 0.0007	1.448 ± 0.0007	1.4454 ± 0.0007	1.4428 ± 0.0007
x2 = 0.6548	1.4525 ± 0.0006	1.45 ± 0.0007	1.4474 ± 0.0007	1.4449 ± 0.0007	1.4423 ± 0.0007	1.4397 ± 0.0007	1.4371 ± 0.0007
x2 = 0.7227	1.447 ± 0.0006	1.4445 ± 0.0006	1.442 ± 0.0006	1.4395 ± 0.0006	1.437 ± 0.0007	1.4344 ± 0.0007	1.4318 ± 0.0007
x2 = 0.7936	1.4412 ± 0.0006	1.4388 ± 0.0006	1.4363 ± 0.0006	1.4338 ± 0.0006	1.4313 ± 0.0006	1.4288 ± 0.0006	1.4263 ± 0.0006
x2 = 0.8663	1.4354 ± 0.0006	1.433 ± 0.0006	1.4306 ± 0.0006	1.4282 ± 0.0006	1.4257 ± 0.0006	1.4233 ± 0.0006	1.4208 ± 0.0006
x2 = 0.9319	1.43 ± 0.0006	1.4277 ± 0.0006	1.4254 ± 0.0006	1.4231 ± 0.0006	1.4208 ± 0.0006	1.4184 ± 0.0006	1.4161 ± 0.0006

Cc1cccc(C)c1 [1,3-dimethylbenzene] + C1COCCO1
refractive index
Details	288.15 K	293.15 K	298.15 K	303.15 K	308.15 K	313.15 K	318.15 K
x2 = 0	1.4999 ± 0.0006	1.4974 ± 0.0007	1.4948 ± 0.0007	1.4922 ± 0.0007	1.4896 ± 0.0007	1.487 ± 0.0007	1.4844 ± 0.0007
x2 = 0.0938	1.4933 ± 0.0007	1.4907 ± 0.0007	1.488 ± 0.0007	1.4853 ± 0.0007	1.4826 ± 0.0007	1.4799 ± 0.0007	1.4772 ± 0.0007
x2 = 0.1532	1.489 ± 0.0007	1.4864 ± 0.0007	1.4837 ± 0.0007	1.4811 ± 0.0007	1.4783 ± 0.0007	1.4756 ± 0.0007	1.4728 ± 0.0007
x2 = 0.2046	1.4852 ± 0.0007	1.4826 ± 0.0007	1.4799 ± 0.0007	1.4772 ± 0.0007	1.4745 ± 0.0007	1.4718 ± 0.0007	1.4691 ± 0.0007
x2 = 0.2698	1.4805 ± 0.0007	1.4779 ± 0.0007	1.4753 ± 0.0007	1.4726 ± 0.0007	1.4699 ± 0.0007	1.4672 ± 0.0007	1.4645 ± 0.0007
x2 = 0.3374	1.4755 ± 0.0006	1.473 ± 0.0007	1.4704 ± 0.0007	1.4677 ± 0.0007	1.4651 ± 0.0007	1.4624 ± 0.0007	1.4597 ± 0.0007
x2 = 0.4002	1.4709 ± 0.0006	1.4684 ± 0.0007	1.4658 ± 0.0007	1.4632 ± 0.0007	1.4606 ± 0.0007	1.458 ± 0.0007	1.4553 ± 0.0007
x2 = 0.4714	1.4656 ± 0.0006	1.4631 ± 0.0006	1.4606 ± 0.0007	1.458 ± 0.0007	1.4555 ± 0.0007	1.4529 ± 0.0007	1.4503 ± 0.0007
x2 = 0.5487	1.4598 ± 0.0006	1.4574 ± 0.0006	1.4549 ± 0.0006	1.4524 ± 0.0007	1.4498 ± 0.0007	1.4473 ± 0.0007	1.4447 ± 0.0007
x2 = 0.63	1.4536 ± 0.0006	1.4512 ± 0.0006	1.4487 ± 0.0006	1.4462 ± 0.0006	1.4437 ± 0.0006	1.4412 ± 0.0006	1.4387 ± 0.0007
x2 = 0.7182	1.4468 ± 0.0006	1.4444 ± 0.0006	1.442 ± 0.0006	1.4395 ± 0.0006	1.4371 ± 0.0006	1.4346 ± 0.0006	1.4321 ± 0.0007
x2 = 0.8035	1.4401 ± 0.0006	1.4378 ± 0.0006	1.4354 ± 0.0006	1.4329 ± 0.0006	1.4305 ± 0.0006	1.428 ± 0.0006	1.4256 ± 0.0006
x2 = 0.8708	1.4348 ± 0.0006	1.4325 ± 0.0006	1.4302 ± 0.0006	1.4279 ± 0.0006	1.4255 ± 0.0006	1.4231 ± 0.0006	1.4206 ± 0.0006
x2 = 0.9324	1.4299 ± 0.0006	1.4277 ± 0.0006	1.4255 ± 0.0006	1.4232 ± 0.0006	1.4209 ± 0.0006	1.4186 ± 0.0006	1.4163 ± 0.0006

C1COCCO1 [1,4-dioxane] + Cc1ccccc1
refractive index
Details	288.15 K	293.15 K	298.15 K	303.15 K	308.15 K	313.15 K	318.15 K
x1 = 0.0688	1.4955 ± 0.0007	1.4927 ± 0.0007	1.4899 ± 0.0007	1.487 ± 0.0007	1.4841 ± 0.0007	1.4812 ± 0.0007	1.4783 ± 0.0007
x1 = 0.1373	1.4914 ± 0.0007	1.4886 ± 0.0007	1.4858 ± 0.0007	1.4829 ± 0.0007	1.48 ± 0.0007	1.4771 ± 0.0007	1.4742 ± 0.0007
x1 = 0.2112	1.4869 ± 0.0007	1.4842 ± 0.0007	1.4814 ± 0.0007	1.4786 ± 0.0007	1.4757 ± 0.0007	1.4729 ± 0.0007	1.47 ± 0.0007
x1 = 0.2858	1.4822 ± 0.0007	1.4795 ± 0.0007	1.4768 ± 0.0007	1.474 ± 0.0007	1.4712 ± 0.0007	1.4684 ± 0.0007	1.4655 ± 0.0007
x1 = 0.3552	1.4775 ± 0.0007	1.4749 ± 0.0007	1.4722 ± 0.0007	1.4695 ± 0.0007	1.4668 ± 0.0007	1.464 ± 0.0007	1.4613 ± 0.0007
x1 = 0.4361	1.4719 ± 0.0006	1.4693 ± 0.0007	1.4667 ± 0.0007	1.464 ± 0.0007	1.4614 ± 0.0007	1.4587 ± 0.0007	1.456 ± 0.0007
x1 = 0.5064	1.4668 ± 0.0006	1.4643 ± 0.0007	1.4617 ± 0.0007	1.4591 ± 0.0007	1.4565 ± 0.0007	1.4539 ± 0.0007	1.4512 ± 0.0007
x1 = 0.5819	1.4611 ± 0.0006	1.4586 ± 0.0006	1.4561 ± 0.0006	1.4536 ± 0.0007	1.451 ± 0.0007	1.4484 ± 0.0007	1.4458 ± 0.0007
x1 = 0.6506	1.4557 ± 0.0006	1.4533 ± 0.0006	1.4508 ± 0.0006	1.4483 ± 0.0006	1.4458 ± 0.0006	1.4433 ± 0.0006	1.4408 ± 0.0007
x1 = 0.7212	1.4499 ± 0.0006	1.4475 ± 0.0006	1.4451 ± 0.0006	1.4427 ± 0.0006	1.4403 ± 0.0006	1.4378 ± 0.0006	1.4353 ± 0.0007
x1 = 0.7903	1.444 ± 0.0006	1.4417 ± 0.0006	1.4393 ± 0.0006	1.437 ± 0.0006	1.4346 ± 0.0006	1.4322 ± 0.0006	1.4298 ± 0.0006
x1 = 0.864	1.4374 ± 0.0006	1.4352 ± 0.0006	1.4329 ± 0.0006	1.4306 ± 0.0006	1.4283 ± 0.0006	1.426 ± 0.0006	1.4236 ± 0.0006
x1 = 0.9336	1.431 ± 0.0006	1.4288 ± 0.0006	1.4266 ± 0.0006	1.4244 ± 0.0006	1.4222 ± 0.0006	1.4199 ± 0.0006	1.4176 ± 0.0006
x1 = 1	1.4245 ± 0.0006	1.4224 ± 0.0006	1.4203 ± 0.0006	1.4182 ± 0.0006	1.4161 ± 0.0006	1.4139 ± 0.0006	1.4117 ± 0.0006

— the NIST ThermoML archive (doi:10.1021/je800579j)
